# Reference: US7358245B2, “Treatment of gastroesophageal reflux disease” (AstraZenca AB, priority 2001, dated 2008)
# Test system: transient lower esophageal sphincter relaxations (TLESRs)
# Test: Screening for compounds active against TLESR (motility measurement in dogs)
# Assay type: in vivo, Adult Labrador retrievers (dog)
# Conditions: vs five preceding control experiments for each dog
# Description: Adult Labrador retrievers of both genders, trained to stand in a Pavlov sling, are used. Mucosa-to-skin esophagostomies are formed and the dogs are allowed to recover completely before any experiments are done.
# In brief, after fasting for approximately 17 h with free supply of water, a multilumen sleeve/sidehole assembly (Dentsleeve, Adelaide, South Australia) is introduced through the esophagostomy to measure gastric, lower esophageal sphincter (LES) and esophageal pressures. The assembly is perfused with water using a low-compliance manometric perfusion pump (Dentsleeve, Adelaide, South Australia). An air-perfused tube is passed in the oral direction to measure swallows, and an antimony electrode monitored pH, 3 cm above the LES. All signals are amplified and acquired on a personal computer at 10 Hz.
# When a baseline measurement free from fasting gastric/LES phase III motor activity has been obtained, placebo (0.9% NaCl) or test compound is administered intravenously (i.v., 0.5 ml/kg) in a foreleg vein. Ten min after i.v. administration, a nutrient meal (10% peptone, 5% D-glucose, 5% Intralipid, pH 3.0) is infused into the stomach through the central lumen of the assembly at 100 ml/min to a final volume of 30 ml/kg. Immediately following the meal, air is insufflated at 40 ml/min. The experimental time from start of nutrient infusion to end of air insufflation is 45 min. The procedure has been validated as a reliable means of triggering TLESRs.
# TLESRs is defined as a decrease in lower esophageal sphincter pressure (with reference to intragastric pressure) at a rate of >1 mmHg/s. The relaxation should not be preceded by a pharyngeal signal ≦2 s before its onset in which case the relaxation is classified as swallow-induced. The pressure difference between the LES and the stomach should be less than 2 mmHg, and the duration of the complete relaxation longer than 1 s.
# The aminoalkylindole cannabinoid WIN 55,212-2, purchased from Tocris Cookson (Bristol, U.K.), was tested on Adult Labrador retrievers of both genders in accordance with the test model described above.
# Inhibition of the number of TLESRs was calculated with regard to the five preceding control experiments for each dog, and the results as set out in Table 1 below were achieved.
compound,measurement,setting,value
Cc1c(C(=O)NN2CCCCC2)nn(-c2ccc(Cl)cc2Cl)c1-c1ccc(Cl)cc1 [SR141716A],% STIMULATION ± SEM (N) of the number of TLESRs,dose 0.22 μmol/kg i.v.,43 ± 16 (6) %
"Cc1c(C(=O)c2cccc3ccccc23)c2cccc3c2n1[C@H](CN1CCOCC1)CO3 [WIN 55,212-2, (2-methyl-3-morpholin-4-ylmethyl-3,4-dihydro-5-oxa-2a-aza-acenaphthylen-1-yl)-naphthalen-1-yl-methanone]",% INHIBITION ± SEM (N) of the number of TLESRs,dose 0.003 mg/kg i.v.,20 ± 18 (4) %
same,% INHIBITION ± SEM (N) of the number of TLESRs,dose 0.01 mg/kg i.v.,70 ± 10 (4) %
same,% INHIBITION ± SEM (N) of the number of TLESRs,dose 0.03 mg/kg i.v.,82 ± 1 (4) %
"COc1ccc2c(c1)c(CCN1CCOCC1)c(C)n2C(=O)c1cccc(Cl)c1Cl [L-768,242, (2,3-dichloro-phenyl)-[5-methoxy-2-methyl-3-(2-morpholin-4-yl-ethyl)-indol-1-yl]-methanone]",% INHIBITION ± SEM (N) of the number of TLESRs,dose 0.3 μmol/kg i.v.,8 ± 21 (4) %
same,% INHIBITION ± SEM (N) of the number of TLESRs,dose 1 μmol/kg i.v.,44 ± 6 (5) %
same,% INHIBITION ± SEM (N) of the number of TLESRs,dose 5 μmol/kg i.v.,63 ± 5 (4) %
same,% INHIBITION ± SEM (N) of the number of TLESRs,dose 7 μmol/kg i.v.,76 ± 12 (3) %
